Measurements reported in patent US11542249B2, “BTK inhibitor compounds” (Eli Lilly and Company, priority 2017, dated 2023).

Columns and labels:
human EGFR = human EGFR (Homo sapiens (Human), UniProt P00533); assay: EGFR LANTHASCREEN Eu Kinase Binding Assay; details: IC50 value ± standard deviation; truncated GST-labeled EGFR, kinase tracer 199; read-out: hEGFR Rel IC50
Protocol: (§1) BTK and EGFR in Vitro Assays:
(§2) The BTK and EGFR biochemical assays utilize LANTHASCREEN® Eu Kinase Binding Assays from Thermo Fisher Scientific, measuring the binding of the kinase with a […] tracer. The assay buffer consists of 50 mM HEPES pH 7.5, 0.01% BRU™-35, 10 mM MgCl2, 1 mM EGTA, and 1 mM DTT. The test compounds are diluted and added to the assay plate with a Labcyte ECHO® 555 liquid handler. The compounds are tested in 10 point dose response curves (100 μM-0.005 μM) with a maximum DMSO concentration of 1%. The assays are performed in 20 μL in low-volume 384-well white proxiplates. For the BTK assay, the concentration of full-length His-labeled BTK in the assay is 5 nM, the Eu-anti-His antibody is 2 nM, and the kinase tracer 236 is 60 nM. For the EGFR assay, the concentration of truncated (amino acids 668-1210) GST-labeled EGFR is 5 nM, the Eu-anti-GST antibody is 2 nM, and the kinase tracer 199 is 10 nM. The components of the assay (compound, enzyme/antibody, tracer) are assembled and incubated for 30 min prior to being read on a Perkin-Elmer EnVision with excitation at 340 nm, tracer emission at 665 nm, and antibody emission at 615 nm. The signal ratio is converted to percent inhibition using the following equation: % Inhibition=100−[(Test Compound−Median Minimum)/(Median Maximum−Median Minimum)×100].

human BTK = human BTK (Homo sapiens (Human), UniProt Q06187); assay: BTK LANTHASCREEN Eu Kinase Binding Assay; details: IC50 value ± standard deviation; full-length His-labeled BTK, kinase tracer 236; read-out: hBTK Rel IC50
Protocol: as §1, §2
(§3) The following Table 1 and Table 2 describes the relative IC50 data vs. human BTK, human EGFR, and human whole blood CD69.

[1] = tested on: activated B cells in human whole blood (CD69); assay: Human Whole Blood CD69 in vitro assay (B cell activation, flow cytometry); format: cell-based; details: IC50 value ± standard deviation, anti-human-IgD-Dextran stimulation, read-out: HWB CD69 Rel IC50
Protocol: Human Whole Blood CD69 in Vitro Assay:
The HWB CD69 assay measures activated B cells in human whole blood using a flow cytometer. Compounds are diluted and added to assay plates with a Labcyte ECHO® 555 liquid handler. Compounds are tested in 10 point dose response curves (20 μM-0.001 μM) in 96-well v-bottom plates with a maximum DMSO concentration of 0.2%. Fresh blood from individual healthy volunteer is mixed with HEPES (0.5 ml HEPES added per 10 ml blood) and 100 μl/well is added to compound plates. The plates are sealed and incubated in a 37° C. incubator for 3 h. Anti-human-IgD-Dextran is added to each well to give a final concentration of 100 ng/ml, mixed, and put back into the incubator. After 1 h, the cells are washed with cold FACS buffer and transferred to a deep well plate. The cells are incubated with anti-human CD69-PE (BIOLEGEND®, clone FN50) and anti-human CD19-APC (BIOLEGEND®, clone HIB19) antibodies on ice for 20 min. The cells are washed and incubated in eBioscience™ 1-step Fix/Lyse solution (10×) at RT to lyse the red blood cells and fix the other cells. The white cells are pelleted and washed in FACS buffer and then brought up in read buffer. The suspended cells are transferred to 96-well round bottom plates and read on an IntelliCyt iQue® Screener Plus flow cytometer. From the SSC (Side Scatter Channel) vs FSC (Forward Scatter Channel) graph, the lymphocytes are identified. Lymphocytes are identified with gated on positive CD19 marker for quantify CD69 (a marker of activated B lymphocytes) MFI (mean fluorescent intensity/cell). The signal ratio is converted to percent inhibition using the following equation: % Inhibition=100−[(Test Compound−Median Min)/(Median Max−Median Min)×100].
as §3

Sequence of human EGFR (P00533 668-1210): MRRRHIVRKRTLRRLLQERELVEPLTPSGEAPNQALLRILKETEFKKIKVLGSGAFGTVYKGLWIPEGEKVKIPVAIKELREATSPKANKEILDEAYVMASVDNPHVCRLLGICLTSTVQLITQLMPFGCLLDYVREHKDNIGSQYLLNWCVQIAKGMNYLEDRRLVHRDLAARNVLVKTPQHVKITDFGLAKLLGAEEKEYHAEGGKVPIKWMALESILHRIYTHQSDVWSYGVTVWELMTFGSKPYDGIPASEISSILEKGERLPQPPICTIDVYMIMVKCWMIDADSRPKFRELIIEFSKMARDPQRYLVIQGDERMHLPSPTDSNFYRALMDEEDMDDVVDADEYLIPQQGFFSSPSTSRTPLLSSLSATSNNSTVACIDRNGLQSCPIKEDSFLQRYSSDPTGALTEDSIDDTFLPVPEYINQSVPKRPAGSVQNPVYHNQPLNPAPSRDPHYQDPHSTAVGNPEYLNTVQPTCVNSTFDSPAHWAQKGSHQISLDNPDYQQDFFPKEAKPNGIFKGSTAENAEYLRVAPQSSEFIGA
Sequence of human BTK (Q06187 whole entry): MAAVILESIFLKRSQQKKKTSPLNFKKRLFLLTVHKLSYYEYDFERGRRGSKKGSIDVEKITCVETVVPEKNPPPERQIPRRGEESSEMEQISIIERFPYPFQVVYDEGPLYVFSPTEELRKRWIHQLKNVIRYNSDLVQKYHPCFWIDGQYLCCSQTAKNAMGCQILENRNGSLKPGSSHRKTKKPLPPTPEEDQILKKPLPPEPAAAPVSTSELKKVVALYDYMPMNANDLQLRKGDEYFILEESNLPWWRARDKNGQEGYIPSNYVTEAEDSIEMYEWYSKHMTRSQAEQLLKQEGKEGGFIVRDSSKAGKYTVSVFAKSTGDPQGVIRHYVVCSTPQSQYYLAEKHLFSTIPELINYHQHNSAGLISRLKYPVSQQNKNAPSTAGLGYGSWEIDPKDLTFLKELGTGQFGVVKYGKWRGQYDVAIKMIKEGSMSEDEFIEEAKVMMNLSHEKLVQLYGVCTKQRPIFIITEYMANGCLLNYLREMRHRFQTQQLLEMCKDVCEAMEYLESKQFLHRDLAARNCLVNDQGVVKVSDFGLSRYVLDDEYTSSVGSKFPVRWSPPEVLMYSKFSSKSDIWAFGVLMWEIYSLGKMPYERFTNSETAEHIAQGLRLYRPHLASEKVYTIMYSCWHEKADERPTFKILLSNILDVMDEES

Compound	IC50 (human EGFR) [nM]	IC50 (human BTK) [nM]	IC50 [1] [nM]
C#Cc1cccc(Oc2ncc(-c3cncc(NC4CN(C(=O)C=C)C4)c3)cn2)c1 [Example 14, 1-[3-[[5-[2-(3-ethynylphenoxy)pyrimidin-5-yl]-3-pyridyl]amino]azetidin-1-yl]prop-2-en-1-one]	242 ± 231	17.8 ± 3.77	299 ± 143
C=CC(=O)N1CC(Nc2cncc(-c3cnc(Oc4ccc(F)c(OC(F)F)c4)nc3)c2)C1 [Example 9, 1-[3-[[5-[2-[3-(difluoromethoxy)-4-fluoro-phenoxy]pyrimidin-5-yl]-3-pyridyl]amino]azetidin-1-yl]prop-2-en-1-one]	3760 ± 1400	60.6 ± 0.351	655 ± 295
C=CC(=O)N1CC(Nc2cncc(-c3cnc(Oc4cccc(Cl)c4F)nc3)c2)C1 [Example 2, 1-[3-[[5-[2-(3-chloro-2-fluoro-phenoxy)pyrimidin-5-yl]-3-pyridyl]amino]azetidin-1-yl]prop-2-en-1-one]	121 ± 66.4	6.89 ± 2.62	141 ± 41.3
C=CC(=O)N1CC(Nc2cncc(-c3cnc(Oc4cccc(C(F)(F)F)c4)nc3)n2)C1 [Example 26, 1-[3-[[6-[2-[3-(trifluoromethyl)phenoxy]pyrimidin-5-yl]pyrazin-2-yl]amino]azetidin-1-yl]prop-2-en-1-one]	4030 ± 1920	30.2 ± 4.32	490 ± 255
C=CC(=O)N1CC(Nc2cncc(-c3cnc(Oc4cccc(Cl)c4)nc3)c2)C1 [Example 7, 1-[3-[[5-[2-(3-chlorophenoxy)pyrimidin-5-yl]-3-pyridyl]amino]azetidin-1-yl]prop-2-en-1-one]	129 ± 55.3	9.73 ± 2.01	180 ± 46
C=CC(=O)N1CC(Nc2cncc(-c3cnc(Oc4cccc(F)c4)nc3)n2)C1 [Example 25, 1-[3-[[6-[2-(3-fluorophenoxy)pyrimidin-5-yl]pyrazin-2-yl]amino]azetidin-1-yl]prop-2-en-1-one]	1580 ± 110	19.3 ± 3.28	306 ± 63.6
C=CC(=O)N1CCC(Nc2cncc(-c3cnc(Nc4cccc(C)n4)nc3)c2)CC1 [Example 20, 1-[4-[[5-[2-[(6-methyl-2-pyridyl)amino]pyrimidin-5-yl]-3-pyridyl]amino]-1-piperidyl]prop-2-en-1-one]	2220 ± 649	16.9 ± 3.93	208 ± 132
C=CC(=O)N1CC[C@H](Nc2cncc(-c3cnc(Oc4cccc(Cl)c4)nc3)c2)C1 [Example 6, 1-[(3S)-3-[[5-[2-(3-chlorophenoxy)pyrimidin-5-yl]-3-pyridyl]amino]pyrrolidin-1-yl]prop-2-en-1-one]	5180 ± 441	72.4 ± 4.22	671 ± 236
C=CC(=O)N1CC[C@H](Nc2cncc(-c3cnc(Nc4cccc(Cl)c4)nc3)c2)C1 [Example 15]	1370 ± 1210	6.01 ± 0.579	219 ± 86
C=CC(=O)N1CC(Nc2cncc(-c3cnc(Oc4cccc(C(F)(F)F)c4)nc3)c2)C1 [Example 8, 1-[3-[[5-[2-[3-(trifluoromethyl)phenoxy]pyrimidin-5-yl]-3-pyridyl]amino]azetidin-1-yl]prop-2-en-1-one]	724 ± 375	23.1 ± 0.0341	239 ± 34.5
C=CC(=O)N1CC[C@H](Nc2cncc(-c3cnc(Nc4cccc(OC(F)F)c4)nc3)c2)C1 [Example 16, (S)-1-(3-((5-(2-((3-(difluoromethoxy)phenyl)amino)pyrimidin-5-yl)pyridin-3-yl)amino)pyrrolidin-1-yl)prop-2-en-1-one]	–	–	118 ± 56
C=CC(=O)N1CC(Nc2cncc(-c3cnc(Oc4ccc(F)c(Cl)c4)nc3)c2)C1 [Example 13, 1-[3-[[5-[2-(3-chloro-4-fluoro-phenoxy)pyrimidin-5-yl]-3-pyridyl]amino]azetidin-1-yl]prop-2-en-1-one]	450 ± 53.2	38.2 ± 16.9	715 ± 93.5
C=CC(=O)N1CC(Nc2cncc(-c3cnc(Oc4ccccc4)nc3)n2)C1 [Example 28, 1-[3-[[6-(2-phenoxypyrimidin-5-yl)pyrazin-2-yl]amino]azetidin-1-yl]prop-2-en-1-one]	1470 ± 209	42.9 ± 5.09	742 ± 323
C=CC(=O)N1CC[C@H](Nc2cncc(-c3cnc(Nc4cccc(C)n4)nc3)c2)C1 [Example 17, 1-{(3S)-3-[(5-{2-[(6-methylpyridin-2-yl)amino]pyrimidin-5-yl}pyridin-3-yl)amino]pyrrolidin-1-yl}prop-2-en-1-one]	–	–	242 ± 64.3
C=CC(=O)N1CC(Nc2cncc(-c3cnc(Oc4cccc(C#N)c4)nc3)c2)C1 [Example 3, 3-[5-[5-[(1-prop-2-enoylazetidin-3-yl)amino]-3-pyridyl]pyrimidin-2-yl]oxybenzonitrile]	–	–	595 ± 326
C=CC(=O)N1CC(Nc2cncc(-c3cnc(Oc4cccc(OC(F)(F)F)c4)nc3)c2)C1 [Example 10, 1-[3-[[5-[2-[3-(trifluoromethoxy)phenoxy]pyrimidin-5-yl]-3-pyridyl]amino]azetidin-1-yl]prop-2-en-1-one]	–	34.5 ± 8.08	263 ± 129

Next, values leading:

IC50 (human EGFR) [nM]	IC50 (human BTK) [nM]	IC50 [1] [nM]	Compound
6100	6.7	355 ± 39	C=CC(=O)N1CCC(Nc2cncc(-c3cnc(Nc4cccc(Cl)c4)nc3)c2)CC1C (centres unmarked) [Example 47, 1-[4-[[5-[2-(3-chloroanilino)pyrimidin-5-yl]-3-pyridyl]amino]-2-methyl-1-piperidyl]prop-2-en-1-one]
676 ± 23	< 5	105 ± 43	C=CC(=O)N1CC(Nc2cncc(-c3cnc(Nc4ccccc4OC(F)(F)F)nc3)n2)C1 [Example 43, 1-[3-[[6-[2-[2-(trifluoromethoxy)anilino]pyrimidin-5-yl]pyrazin-2-yl]amino]azetidin-1-yl]prop-2-en-1-one]
52600 ± 28800	43.8 ± 4.17	466 ± 159	CN(C)C/C=C/C(=O)N1CCC(Nc2cncc(-c3cnc(Oc4cccc(Cl)c4)nc3)n2)CC1 [Example 45, (E)-1-[4-[[6-[2-(3-chlorophenoxy)pyrimidin-5-yl]pyrazin-2-yl]amino]-1-piperidyl]-4-(dimethylamino)but-2-en-1-one]
306 ± 33.8	< 5	136 ± 66.8	C=CC(=O)N1CC(Nc2cncc(-c3cnc(Nc4cccc(OC(F)(F)F)c4)nc3)n2)C1 [Example 37, 1-[3-[[6-[2-[3-(trifluoromethoxy)anilino]pyrimidin-5-yl]pyrazin-2-yl]amino]azetidin-1-yl]prop-2-en-1-one]
908 ± 546	6.89 ± 0.835	66.6 ± 19.9	C=CC(=O)N1CCC(Nc2cncc(-c3cnc(Oc4cccc(OC(F)F)c4)nc3)n2)CC1 [Example 38, 1-[4-[[6-[2-[3-(difluoromethoxy)phenoxy]pyrimidin-5-yl]pyrazin-2-yl]amino]-1-piperidyl]prop-2-en-1-one]
194 ± 47.9	6.88 ± 1.37	135 ± 66.5	C=CC(=O)N1C[C@@H](Nc2cncc(-c3cnc(Oc4cccc(Cl)c4)nc3)n2)[C@@H]1C (single isomer, unassigned; isomer 1) [Example 32]
6040 ± 2090	< 5	157 ± 52.3	CN(C)C/C=C/C(=O)N1CCC(Nc2cncc(-c3cnc(Nc4cccc(Cl)c4)nc3)n2)CC1 [Example 46, (E)-1-[4-[[6-[2-(3-chloroanilino)pyrimidin-5-yl]pyrazin-2-yl]amino]-1-piperidyl]-4-(dimethylamino)but-2-en-1-one]
15200 ± 654	6.72 ± 1.7	161 ± 71	C=CC(=O)N1CC[C@H](Nc2cncc(-c3cnc(Nc4ccccc4OC(F)(F)F)nc3)n2)C1 [Example 36, 1-[(3S)-3-[[6-[2-[2-(trifluoromethoxy)anilino]pyrimidin-5-yl]pyrazin-2-yl]amino]pyrrolidin-1-yl]prop-2-en-1-one]
